Laboratory results as given in ChEMBL document CHEMBL1132261, “Pneumocystis carinii and Toxoplasma gondii dihydrofolate reductase inhibitors and antitumor agents: synthesis and biological activities of 2,4-diamino-5-methyl-6-[(monosubstituted anilino)methyl] pyrido[2,3-d]pyrimidines” (J Med Chem, 1999).

Experiments:
[1] = The compound was tested for ratio of inhibition of dihydrofolate reductase(DHFR) from rat(rl) liver and Toxoplasma gondii(tg)
[2] = The compound was tested for ratio of inhibition of dihydrofolate reductase(DHFR) from rat(rl) liver and Pneumocystis carinii(pc)
[3] = Log Ko/w value by LOGKOW program.; assay type: ADME; conditions: octanol/water; read-out: Log Ko/w
[4] = target: T1, Bifunctional dihydrofolate reductase-thymidylate synthase (Toxoplasma gondii, UniProt Q07422); experiment: Inhibition of dihydrofolate reductase (DHFR) from Toxoplasma gondii(tg)
T1 sequence (Q07422 whole entry): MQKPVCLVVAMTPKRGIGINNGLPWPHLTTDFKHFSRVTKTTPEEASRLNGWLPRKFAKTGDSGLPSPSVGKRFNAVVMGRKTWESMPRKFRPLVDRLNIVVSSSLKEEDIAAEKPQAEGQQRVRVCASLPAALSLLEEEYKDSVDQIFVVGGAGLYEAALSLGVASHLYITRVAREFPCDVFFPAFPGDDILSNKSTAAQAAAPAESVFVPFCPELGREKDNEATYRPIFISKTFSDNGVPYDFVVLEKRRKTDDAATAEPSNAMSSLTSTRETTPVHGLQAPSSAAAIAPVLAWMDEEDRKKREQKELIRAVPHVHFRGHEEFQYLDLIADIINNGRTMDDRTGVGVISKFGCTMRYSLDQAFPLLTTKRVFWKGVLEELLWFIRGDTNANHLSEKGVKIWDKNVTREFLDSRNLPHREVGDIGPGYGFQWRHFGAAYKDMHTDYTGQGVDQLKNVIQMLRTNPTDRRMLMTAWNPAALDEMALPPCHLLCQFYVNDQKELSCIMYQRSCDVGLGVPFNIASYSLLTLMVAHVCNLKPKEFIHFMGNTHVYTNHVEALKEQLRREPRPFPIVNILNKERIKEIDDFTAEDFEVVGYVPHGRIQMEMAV

Dihydrofolate reductase [5] = target: T2, Dihydrofolate reductase (Rattus norvegicus, UniProt Q920D2)
T2 sequence (Q920D2 whole entry): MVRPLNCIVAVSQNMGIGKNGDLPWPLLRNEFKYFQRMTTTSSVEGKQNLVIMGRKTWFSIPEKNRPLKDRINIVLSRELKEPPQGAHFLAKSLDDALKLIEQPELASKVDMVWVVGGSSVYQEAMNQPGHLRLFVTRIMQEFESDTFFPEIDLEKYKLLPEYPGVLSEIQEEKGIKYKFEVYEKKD
Description: Inhibition of dihydrofolate reductase (DHFR) from rat liver (rl)

Dihydrofolate reductase [6] = target: T3, Dihydrofolate reductase (Pneumocystis carinii, UniProt P16184)
T3 sequence (P16184 whole entry): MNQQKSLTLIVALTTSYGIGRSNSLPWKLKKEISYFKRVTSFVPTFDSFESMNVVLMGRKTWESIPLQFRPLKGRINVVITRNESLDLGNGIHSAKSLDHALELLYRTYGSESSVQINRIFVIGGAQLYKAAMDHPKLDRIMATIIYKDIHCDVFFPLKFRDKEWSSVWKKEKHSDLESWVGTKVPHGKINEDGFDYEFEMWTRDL
Description: Inhibition of dihydrofolate reductase (DHFR) from Pneumocystis carinii(pc)

Toxoplasma gondii = experiment: Inhibitory concentration of cell growth from Toxoplasma gondii; assay type: functional, organism-based
[7] = The compound was tested for ratio of inhibition of cell growth and dihydrofolate reductase(DHFR); assay type: functional

SMILES | Ratio [1] | Ratio [2] | logP [3] | IC50 [4] [µM] | IC50 (Dihydrofolate reductase [5]) [µM] | IC50 (Dihydrofolate reductase [6]) [µM] | IC50 (Toxoplasma gondii) [µM] | Ratio [7]
COc1ccc(N(C)Cc2cnc3nc(N)nc(N)c3c2C)cc1OC | 1.5 | 0.1 | – | – | – | – | – | –
COc1cc(N(C)Cc2cnc3nc(N)nc(N)c3c2C)cc(OC)c1OC | – | – | 1.76 | – | – | – | – | –
Cc1c(CNc2cccc(Cl)c2)cnc2nc(N)nc(N)c12 | – | – | – | 0.011 | 0.037 | 0.023 | – | –
Cc1c(CN(C)c2ccc(Br)cc2)cnc2nc(N)nc(N)c12 | – | – | – | 0.03 | 0.036 | 0.037 | – | –
Cc1c(CNc2ccccc2Cl)cnc2nc(N)nc(N)c12 | – | – | 2.35 | 0.0071 | 0.088 | 0.047 | 0.058 | 8
Cc1c(CNc2ccc(Br)cc2)cnc2nc(N)nc(N)c12 | – | – | – | 0.0095 | 0.0349 | 0.0808 | – | –
Cc1c(CNc2ccc(Cl)cc2)cnc2nc(N)nc(N)c12 | – | – | – | 0.019 | 0.051 | 0.0554 | – | –
COc1cccc(NCc2cnc3nc(N)nc(N)c3c2C)c1 | – | – | 2.14 | 0.0074 | 0.0801 | 0.0689 | 0.371 | 50
COc1ccccc1NCc1cnc2nc(N)nc(N)c2c1C | – | – | – | 0.023 | 0.169 | 0.117 | – | –
Cc1c(CN(C)c2ccc(Cl)cc2)cnc2nc(N)nc(N)c12 | – | – | – | 0.0054 | 0.026 | 0.029 | – | –
COc1cccc(N(C)Cc2cnc3nc(N)nc(N)c3c2C)c1 | – | – | – | 0.0063 | 0.018 | 0.03 | – | –
Cc1c(CN(C)c2ccccc2Cl)cnc2nc(N)nc(N)c12 | – | – | – | 0.018 | 0.1 | 0.084 | – | –
COc1ccc(N(C)Cc2cnc3nc(N)nc(N)c3c2C)cc1 | – | – | – | 0.0073 | 0.013 | 0.035 | – | –
Cc1c(CNc2ccccc2)cnc2nc(N)nc(N)c12 | – | – | 1.79 | 0.017 | 0.17 | 0.08 | 0.317 | 19
COc1ccc(OC)c(N(C)Cc2cnc3nc(N)nc(N)c3c2C)c1 | – | – | 2.42 | – | – | – | – | 35
COc1ccc(NCc2cnc3nc(N)nc(N)c3c2C)cc1OC | – | – | – | – | 0.044 | – | – | –
COc1ccc(NCc2cnc3nc(N)nc(N)c3c2C)cc1 | – | – | – | 0.012 | 0.0556 | 0.0954 | – | –
